Measured values published in patent US12503484B2, “Androstane derivatives with activity as pure or predominantly pure stimulators of SERCA2a for the treatment of heart failure” (Seismic Pharmaceuticals, priority 2019, dated 2025).
“Also recorded” adds a separate entry of the source. Read-outs that look alike come from different tables or passages of the source.

Key:
[1] = tested on: rat ventricular myocytes isolated from STZ rats; experiment: SR Ca2+ uptake function in ventricular myocytes from STZ rats (loading protocol); format: cell-based; details: 1 μM
From the text: (§1) The compounds were characterized for their effect on (i) SR Ca^2+ uptake function and (ii) action potential (AP) in myocytes freshly dissociated from rat and guinea-pig ventricles, respectively, by retrograde coronary perfusion with enzymatic solution (Rocchetti M et al., J Pharmacol Exper Therap 2005, 313(1):207-215).
To test the effects of the compounds in a model of diastolic dysfunction, Sprague Dawley male rats (150-175 g) were made diabetic by a single tail vein injection of streptozotocin (STZ 50 mg/kg, Sigma-Aldrich). STZ was freshly prepared in 0.1 M sodium citrate buffer at pH 4.5. Fasting glycaemia was measured after 1 week and rats with values >300 mg/dl were considered diabetic. Drug effects on SR Ca^2+ uptake function were evaluated in isolated left ventricular myocytes 9 weeks after STZ injection. Myocytes were incubated for at least 30 min in the presence of a specific drug to guarantee its cell membrane permeation. Statistical analysis was performed by a “group comparison” model.
Drug effects on SR Ca^2+ uptake rate were evaluated with a SR “loading protocol” specifically devised to rule out the contribution of the Na/Ca exchanger (NCX) and to assess the uptake rate starting at low levels of SR Ca^2+ loading. Under voltage-clamp conditions, intracellular Ca^2+ concentration was dynamically measured by epifluorescence (Fluo4-AM). Membrane current, whose time-dependent component mainly reflected ICaL, was simultaneously recorded. The SR loading protocol consisted in emptying the SR by a brief caffeine pulse and then progressively refilling it by voltage steps activating Ca^2+ influx through the sarcolemmal Ca^2+ channel (ICaL). NCX was blocked by omission of Na^+ from intracellular and extracellular solutions. The procedure is in agreement with published methods, with minor modifications (Rocchetti M et al., J Pharmacol Exper Therap 2005, 313:207-215).
Drug effects on SR Ca^2+ uptake were analyzed by considering multiple parameters: the rate at which 1) Ca^2+ transient (CaT) amplitude and 2) the Ca^2+ induced Ca^2+ release (CICR) gain increased during the loading protocol, reflecting the rate at which the SR refilled and the gain of the system, 3) the time constant of cytosolic Ca^2+ decay (τdecay) within each pulse, reflecting net Ca^2+ transport rate (by SERCA2a) across the SR membrane (a decrease in τdecay corresponds to enhanced SR Ca^2+ uptake).

SERCA2a = SERCA2a (Cavia porcellus, UniProt A0A286XD73); experiment: SERCA2a ATPase activity in heart-derived SR microsomes from normal guinea-pig; format: biochemical
Experimental: SERCA2a ATPase Activity in Heart-Derived SR Microsomes from Normal Quinea-Pig
SERCA2a activity was measured in vitro as ^32P-ATP hydrolysis at different Ca^2+ concentrations (100-4000 nM) in the absence and presence of the tested compounds, as described (Micheletti R. et al., Am J Card 2007, 99:24A-32A). Increasing concentrations of each compound (ranging from 1 to 200 nM) were pre-incubated with 2 μg of SERCA2a enriched microsomes for 5 min at 4° C. in 80 μl of a solution containing 100 mM KCl, 5 mM MgCl2, 1 μM A23187, 20 mM Tris, pH 7.5. […] SERCA2a-dependent activity was identified as the portion of total hydrolytic activity inhibited by 10 μM cyclopiazonic acid (Seidler N W et al., J Biol Chem. 1989, 264:17816-23).
Dose-response curves were fitted by using a sigmoidal equation and the activity at the maximal velocity (Vmax) and the Kd for Ca^2+ were calculated (Synergy Software KaleidaGraph 3.6). The effect of the compounds in normal guinea-pig preparations was expressed as % decrease of Kd Ca^2+ (implying an increase of affinity for Ca^2+) of a control sample run in the absence of compound (Table 2). […] Data are mean±SD, n=number of experiments, *at least p<0.05.

[2] = tested on: guinea-pig ventricular myocytes; experiment: Action potential measurements in guinea-pig ventricular myocytes; format: cell-based; details: 1 μM; for action potential duration (APD90) / diastolic membrane potential (Ediast) / maximum depolarization velocity (dV/dtmax) / rate-dependency of each AP parameter: 0.5-1-2-4 Hz; for slope of linear fit STV vs mean APD90: all pacing rates pooled; for short term APD variability (STV) and its dependency on mean APD: pacing rates 0.5-1-2 and 4 Hz
Experimental: as §1
Cvie216 and Cvie214 effects on action potential parameters were evaluated at the concentration of 1 μM modulating SERCA2a in guinea-pig myocytes. The action potential (AP) contour provides a first-line estimate of the integrated function of membrane ion channels, and its changes may disclose ancillary actions—potentially resulting in untoward effects of the compound. To increase sensitivity of the AP contour as a reporter, effects on the rate-dependency of AP parameters were also tested, thus providing a multiparametric (more stringent) approach. AP were recorded in guinea-pig ventricular myocytes because the AP contour reproduces the human AP. […] Statistical analysis was performed by a “group comparison” model.
APs were recorded in normal Tyrode's solution at 36.5° C. in guinea-pig ventricular myocytes. The following parameters were measured at 4 stimulation rates (0.5-1-2-4 Hz): diastolic membrane potential (Ediast), maximum depolarization velocity (dV/dtmax), action potential duration (APD at 90% of repolarization). Short term APD variability (STV) during steady-state pacing, an index of repolarization stability, was measured as the sum of absolute orthogonal deviations from the identity line in the APDnfAPDn+1 plot (Poincare plot) (Altomare C et al., Circulation A&E 2015, 8:1265-1275).

[3] = target: dog renal Na^+/K^+ ATPase (Canis lupus familiaris (Dog) (Canis familiaris), UniProt P50997); experiment: biochemical; details: IC50 inhibition of dog renal Na+/K+ ATPase, purified dog kidney enzyme;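 also: enzyme preincubated with inhibitor 10 min at 37 °C, then K^+ and ^32P-ATP added for 15 min, released ^32P counted, activity relative to untreated control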
From the text: Inhibition of Dog Renal Na^+/K^+ ATPase Activity
The compounds were thus tested for their inhibitory effect on the canine renal Na^+/K^+ ATPase enzyme.
Kidneys were excised from 1-3 year-old male beagle dogs (WuXi AppTec, Suzhou Co., Ltd. 1318 Wuzhong Ave., Wuzhong District Suzhou, 215104 P.R. China) under pentobarbital anesthesia (Import Authorization from Italian Health Ministry 0009171-09/04/2015-DGSAF-COD_UO-P, 2015). Kidneys were sliced and the outer medulla was dissected and suspended (1 g/10 ml) in a sucrose-histidine solution containing 250 mM sucrose, 30 mM histidine, and 5 mM EDTA, pH 7.2. The tissue was homogenized by using an Ultra Turrax homogenizer. The sample was centrifuged at 6,000 g for 15 min. Next, the supernatant was decanted and centrifuged at 48,000 g for 30 min. The pellet was suspended in the sucrose-histidine buffer and incubated for 20 min with a sodium-dodecyl-sulphate (SDS) solution dissolved in a gradient buffer containing 25 mM imidazole and 1 mM EDTA, pH 7.5. The sample was layered on the top of a sucrose discontinuous gradient (10, 15, and 29.4%) and centrifuged at 60,000 g for 115 min. The pellet was suspended in the gradient buffer.
Increasing concentrations of the standard ouabain, or tested compound, were incubated with 0.3 μg of purified dog kidney enzyme for 10 min at 37° C. in 120 μl final volume of a medium containing 140 mM NaCl, 3 mM MgCl2, 50 mM Hepes-Tris, 3 mM ATP, pH 7.5. Then, 10 μl of a solution containing 10 mM KCl and 20 nCi of ^32P-ATP (3-10 Ci/mmol, Perkin Elmer) were added. The reaction was allowed to continue for 15 min at 37° C. and then stopped by acidification with 20% v/v ice-cold perchloric acid. ^32P was separated by centrifugation with activated Charcoal (Norit A, Serva) and the radioactivity was counted. The inhibitory activity was expressed as percent of the control samples carried out in the absence of ouabain, or tested compound.

STZ diabetic rats = experiment: Haemodynamics in streptozotocin diabetic rats (echocardiography); format: in vivo, rat; details: after 15 min IV infusion 0.2 mg/kg/min
Experimental: CVie214 and CVie216 were tested in a diabetic rat model. Briefly, rats were injected with streptozotocin (STZ). After 7-9 weeks from STZ injection, rats were submitted to transthoracic echocardiographic and Doppler evaluation performed under urethane anesthesia. Two-dimensionally guided M-mode recordings were used to obtain short-axis measurements of left ventricular end-diastolic diameter (LVEDD), left ventricular end-systolic diameter (LVESD), posterior (PW) and septal (SW) diastolic wall thickness according to the American Society of Echocardiography guidelines (Lang R M et al., Eur J Echocardiography 2006, 7:79-108). Fractional shortening was calculated as FS=(LVEDD−LVESD)/LVEDD. Relative wall thickness was calculated as PWTd+IVSTd/LVEDD. Mitral inflow was measured by pulsed Doppler at the tips of mitral leaflets from an apical 4-chamber view to obtain early and late filling velocities (E, A) and deceleration time of early filling velocity (DT). The deceleration slope was calculated as E/DT ratio. The mitral deceleration index was calculated as DT/E ratio. Tissue Doppler Imaging (TDI) was evaluated from the apical 4-chamber view to record septal mitral annular movements, i.e., peak myocardial systolic (s′) and early and late diastolic velocity (e′ and a′).
After baseline hemodynamic measurements were taken, the rats were administered Digoxin, CVie214, CVie216 and compared to control. Digoxin, used as reference drug, was intravenously infused at 0.11 mg/kg/min for 15 min and echocardiographic parameters measured after 1 h. CVie214-salt and CVie216-salt were intravenously infused in STZ diabetic rats at 0.2 mg/kg/min and echocardiographic parameters were measured after 15 min and 30 min.
Tables 4-6 show the haemodynamic parameters in STZ diabetic rats for Digoxin, CVie214-salt, and Cvie216-salt.

[4] = read-out: Kd Ca2+ (nM) mean ± SD, compound 1 nM
[5] = read-out: Kd Ca2+ (nM) mean ± SD, compound 10 nM
[6] = read-out: Kd Ca2+ (nM) mean ± SD, compound 100 nM
[7] = read-out: Kd Ca2+ (nM) mean ± SD, compound 200 nM

Chain of SERCA2a (A0A286XD73 1-997): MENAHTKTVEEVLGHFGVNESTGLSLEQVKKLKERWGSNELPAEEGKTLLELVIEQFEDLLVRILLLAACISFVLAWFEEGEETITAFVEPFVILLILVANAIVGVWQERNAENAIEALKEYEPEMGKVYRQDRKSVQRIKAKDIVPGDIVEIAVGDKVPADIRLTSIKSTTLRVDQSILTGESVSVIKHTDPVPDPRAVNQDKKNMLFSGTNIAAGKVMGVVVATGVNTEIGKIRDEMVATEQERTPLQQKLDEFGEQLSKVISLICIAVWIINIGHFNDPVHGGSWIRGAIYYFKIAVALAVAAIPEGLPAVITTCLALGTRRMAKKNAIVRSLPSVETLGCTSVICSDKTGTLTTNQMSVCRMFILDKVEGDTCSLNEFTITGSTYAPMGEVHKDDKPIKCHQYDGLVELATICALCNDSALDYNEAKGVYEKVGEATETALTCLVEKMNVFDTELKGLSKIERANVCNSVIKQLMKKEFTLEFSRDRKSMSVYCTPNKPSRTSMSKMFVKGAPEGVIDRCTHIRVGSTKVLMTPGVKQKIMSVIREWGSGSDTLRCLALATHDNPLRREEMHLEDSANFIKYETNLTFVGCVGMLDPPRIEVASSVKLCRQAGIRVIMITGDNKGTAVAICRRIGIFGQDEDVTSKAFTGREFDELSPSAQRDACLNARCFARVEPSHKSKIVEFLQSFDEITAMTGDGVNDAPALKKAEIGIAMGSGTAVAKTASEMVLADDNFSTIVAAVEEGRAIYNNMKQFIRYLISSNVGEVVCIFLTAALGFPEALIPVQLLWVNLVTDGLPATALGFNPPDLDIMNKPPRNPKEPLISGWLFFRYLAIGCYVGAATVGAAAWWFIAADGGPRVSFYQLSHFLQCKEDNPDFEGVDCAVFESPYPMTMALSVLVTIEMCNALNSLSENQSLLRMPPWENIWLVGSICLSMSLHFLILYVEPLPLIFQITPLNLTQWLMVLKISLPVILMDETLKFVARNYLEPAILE

Compound | Ca2+ transient (CaT) amplitude / rate of CaT increment during SR reloading [1] | Ca2+ uptake by the SR [1] | Ca2+-induced Ca2+ release (CICR) gain [1] | time constant of Ca2+ decay (τdecay) [1] | Kd (SERCA2a; [4]) [nM] | Kd (SERCA2a; [5]) [nM] | Kd (SERCA2a; [6]) [nM] | Kd (SERCA2a; [7]) [nM] | action potential duration (APD90) [2] | diastolic membrane potential (Ediast) [2] | maximum depolarization velocity (dV/dtmax) [2] | rate-dependency of each AP parameter [2] | slope of linear fit STV vs mean APD90 [2] | short term APD variability (STV) and its dependency on mean APD [2] | IC50 [3] [nM] | HR heart rate (STZ diabetic rats) | s′ TDI contraction velocity (STZ diabetic rats)
C[C@]12CC[C@H](CC(=O)O)CC1C(O)CC1C2CC[C@]2(C)C(=O)CCC12 (stereo in doubt) [CVie216, 2-(6beta-hydroxy-17-oxoandrostane-3-yl) acetic acid] | statistically significant; also recorded: increased | significantly increased | increase | reduction | 529 ± 75.8 | 465 ± 73.4 | 443 ± 85.1 | 463 ± 76.3 | did not affect | did not affect | did not affect | did not affect | 0.009 | not significantly affected | > 100000 | – | –
C[C@]12CC[C@H](CCCC(=O)O)CC1[C@@H](O)CC1C2CC[C@]2(C)C(=O)CCC12 (stereo partly drawn) [CVie214, 4-(6alpha-hydroxy-17-oxoandrostane-3-yl) butyric acid] | failed to significantly increase | significantly increased | affected by the drug as expected from SERCA2a enhancement | close to significance; also recorded: affected by the drug as expected from SERCA2a enhancement | 474 ± 40.4 | 467 ± 62.4 | 427 ± 48.9 | 409 ± 60.1 | did not affect | did not affect | did not affect | did not affect | 0.014 | not significantly affected | > 100000 | modestly, but significantly, increased | modestly, but significantly, increased
